Measured values taken from patent US8557823B2, “Family of PFKFB3 inhibitors with anti-neoplastic activities” (Advanced Cancer Therapeutics, LLC, priority 2007, dated 2013).
Converted amounts (≈) assume the structure as drawn.

Tests used:
BX-PC-3 = test: MTT assay 48 hours, BX-PC-3; assay type: cell-based; details: Homo sapiens, BXPC-3, BX-PC-3, MTT assay
Method: (§1) The ability of the compounds described herein to kill or inhibit the proliferation of cancer cells was measured using either the MTT assay, the Alamar Blue assay, or the Cell Titer Glow® assay using 48 or 72 hours exposure. […] The procedures are briefly described below. Cells of the desired tumor cell line were plated at 2×10^5 cells/ml in 96 well plates. Twice the indicated concentrations of the compounds of the invention were added to cells the following day in an equal volume of media. 72 hours later, cells were lysed and subjected to ATP determination using the CellTiter Glo-Luminescent Cell Viability Assay kit (Promega, Madison, Wis.). Experiments were done in triplicate. When using the MTT assay or the Alamar blue assay, the experimental conditions are essentially similar; at the end of the incubation period, 20 microl of the MTT solution is added per well and the samples are incubated for an additional four hours, rinsed and the absorbance at 570 nm measured. Results for the inhibition of cells proliferation are reported as IC50 as commonly done (the concentration leading to a 50% inhibition of proliferation of the cell population) and are listed in the Tables below. Table 4 lists the IC50 for the compounds of the invention in several cell lines including Jurkat, Calu-6, NCI-H82, U937, or NCI-H1437 cancer cell lines. Table 5 lists the IC50 of PFK-070 in a panel of 10 cell lines.

U937 = test: Cancer cell proliferation, Alamar Blue assay 72 hours, U937; assay type: cell-based; details: Homo sapiens, U-937
Method: as §1

MiaPaca = test: MTT assay 48 hours, MiaPaca; assay type: cell-based; details: Homo sapiens, MIA PaCa-2
Method: as §1

[1] = Solubility in dosing solution Cre:EtOH:Saline; assay type: physicochemical; details: Cremophor:EtOH:Saline 5:5:90, aqueous with cosolvent or surfactant or cyclodextrin, kinetic from dmso stock; 5:5:90 Cremophor:EtOH:Saline, after 24 hours at room temperature
Source text: Chemical properties of the compounds of the invention were investigated, mainly the solubility in several solvents and pharmaceutically accepted excipients or dosing solutions and the stability of these solutions. […] The increase in solubility when comparing the effect of chemical substituents is unpredictable and surprising if one compares the solubility values of PFK-070 to PFK-091 and PFK-070 to PFK-141 and 145 in a dosing solution that could be used to treat cancer patients (See Table 8A below). Briefly, selected compounds of the invention are dissolved in a small volume of the solvents/excipients of interest (Cremophor, or Cremophor:etoh or Tween80:etoh) at room temperature and diluted 1:9 in saline and left at room temperature for over 8 or 24 hours. Both the physical (absence of a precipitate) and the chemical stability (less than 5% degradation) of the solutions are measured (observation and HPLC after filtration).

NCI-H1437 = test: Cancer cell proliferation, Alamar Blue assay 72 hours, NCI-H1437; assay type: cell-based; details: Homo sapiens
Method: as §1

[2] = Microsomal stability in human liver microsomes; assay type: in vitro ADME; details: 0 min
Method: Microsomal stability in vitro in different biologic media (liver microsomes, S9 fraction, hepatocytes) and species is ascertained to evaluate the rate at which a compound undergoes metabolism in the experimental in vitro conditions. […] Experimental conditions are briefly described here: the stability in human liver microsomes of several compounds was done over […] at 37° C. using pooled mixed gender human liver microsomes. These liver microsomes were prepared at 1.0 mg/ml of microsomal protein in a 100 mM potassium phosphate pH 7.4 buffer with 1 mM NADPH. The media was incubated at 37° C. with the compound in solution in DMSO. The concentration of the compound was followed by LC/MS-MS as a function of time. […] Testosterone was used as a positive control. The same experiment was performed with mouse, rat or dog liver microsomes instead of human liver microsomes.

SK-N-SH = test: MTT assay 48 hours, SK-N-SH; assay type: cell-based; details: Homo sapiens
Method: as §1

CT26 = test: MTT assay 48 hours, CT26; assay type: cell-based, murine; details: Mus musculus
Method: as §1

Jurkat = test: Cancer cell proliferation, Alamar Blue assay 72 hours, Jurkat; assay type: cell-based; details: Homo sapiens, Jurkat, 72 h
Method: as §1

SK-BR-3 = test: MTT assay 48 hours, SK-BR-3; assay type: cell-based; details: Homo sapiens, SK-BR-3, MTT assay
Method: as §1

A549 = test: MTT assay 48 hours, A549; assay type: cell-based; details: Homo sapiens
Method: as §1

Calu-6 = test: Cancer cell proliferation, Alamar Blue assay 72 hours, Calu-6; assay type: cell-based; details: Homo sapiens
Method: as §1

NCI-H82 = test: Cancer cell proliferation, Alamar Blue assay 72 hours, NCI-H82; assay type: cell-based; details: Homo sapiens
Method: as §1

LnCap = test: MTT assay 48 hours, LnCap; assay type: cell-based; details: Homo sapiens
Method: as §1

Jurkat cells = test: Inhibition of 2-deoxyglucose uptake, Example 14; assay type: cell-based; details: Homo sapiens, 3 hours
Method: Inhibition of PFKFB3 results in inhibiting glycolysis. Several feedback or feedforward activation and inhibition mechanisms exist so that, by a feedback mechanism, inhibiting the activity of PFKFB3 might inhibit glucose uptake by cells. An assay was developed to determine if there was inhibition of glucose uptake following exposure to the compounds on the invention. Briefly, Jurkat cells were plated at 1×10^5/mL in RPMI 1640 supplemented with 10% fetal bovine serum and 50 μg/mL gentamicin sulfate. Cells were immediately treated with vehicle or 0.5 μmol/L of the compound of the invention for 3 hours and subsequently placed in glucose-free RPMI 1640 for 30 min. ^14C-2-deoxyglucose (0.25 μCi/mL; Perkin Elmer) was added for an additional 60 min and cells were then washed three times with ice-cold RPMI 1640 containing no glucose. Cell lysates were collected in 500 μL of 0.1% SDS, and scintillation counts (counts/min) were measured on 400 μL of lysate. Counts were normalized to protein concentration.

U87MG = test: MTT assay 48 hours, U87MG; assay type: cell-based; details: Homo sapiens, U-87 MG
Method: as §1

BT474 = test: MTT assay 48 hours, BT474; assay type: cell-based; details: Homo sapiens, BT-474
Method: as §1

H22 = test: MTT assay 48 hours, H22; assay type: cell-based; details: Mus musculus
Method: as §1

HL-60 leukemia cells = test: In vitro growth inhibition, HL-60; assay type: cell-based, human; details: 1, 3, 10, 33 μM
Method: (§2) The K562, HL-60, MDA-MB231, and melanoma (CRL-11174) human cancer cell lines were purchased from ATCC (American Tissue Type Culture Collection, Manassas, Va., United States of America). HeLa, A549, Lewis Lung Carcinoma, MDA-MB231, and melanoma cells were grown in Dulbecco's Modified Eagle Medium (DMEM) (Hyclone, Logan, Utah, United States of America) supplemented with 10% fetal bovine serum (Hyclone, Logan, Utah, United States of America) and 50 μg/mL gentamicin sulfate (Invitrogen, Carlsbad, Calif., United States of America). The HL-60, K562, and Jurkat cell lines were grown in RPMI-1640 medium (Hyclone, Logan, Utah, United States of America) supplemented with 10% fetal bovine serum and 50 μg/mL gentamicin sulfate. […]
(§3) Cells were collected 48 hours post-treatment, and cell number and viability were determined by trypan blue exclusion. […]

PFKFB3 = PFKFB3 (Homo sapiens, UniProt Q16875); test: PFKFB3 enzyme-coupled kinetics assay (pyruvate kinase/lactate dehydrogenase, NADH consumption); details: 150 μM
Method: PFKFB3 activity was measured by an enzyme-coupled kinetics assay incorporating pyruvate kinase and lactate dehydrogenase as previously described. […] The assay measures NADH consumption spectrophotometrically as a loss of absorption at 340 nm with stoichiometry of 1 mol ATP: 1 mol NADH consumed. Assays were carried out in 96 well plates at 37° in 200 μL final volume containing 1XPFKFB3 reaction buffer (100 mM Tris-HCl, 100 μM EDTA, 5 mM KH2PO4; pH=7.4), 420 μM phophoenolpyruvate (PEP), 5 mM ATP, 400 μM NADH, 613 units of pyruvate kinase (PK), 1092 units of lactate dehydrogenase (LDH), increasing concentrations of fructose-6-phosphate (40-400 μM), and 15 μg of purified PFKFB3. […] Assays were measured using a BioTek POWERWAVE™ plate reader (BioTek Instruments, Inc., Winooski, Vt., United States of America) in kinetics mode over 15 minute periods to determine kinetic rate of PFKFB3. The enzyme kinetics module for SigmaPlot® 9.0 (SYSTAT Software, Inc., San Jose, Calif., United States of America) was used to calculate the kinetic parameters for PFKFB3 and 1 inhibition (Vmax, Km, and Ki). The Vmax is expressed in specific activity of PFKFB3 as nmol F6P×min^−1×mg^−1. […] The data represented are the mean±STD from triplicate measurements from two independent experiments.

K562 leukemia cells = test: In vitro growth inhibition, K562; assay type: cell-based, human; details: 1, 3, 10, 33 μM
Method: as §2, §3

glycolysis = details: cited from earlier work

PFKFB3, sequence (Q16875 whole entry): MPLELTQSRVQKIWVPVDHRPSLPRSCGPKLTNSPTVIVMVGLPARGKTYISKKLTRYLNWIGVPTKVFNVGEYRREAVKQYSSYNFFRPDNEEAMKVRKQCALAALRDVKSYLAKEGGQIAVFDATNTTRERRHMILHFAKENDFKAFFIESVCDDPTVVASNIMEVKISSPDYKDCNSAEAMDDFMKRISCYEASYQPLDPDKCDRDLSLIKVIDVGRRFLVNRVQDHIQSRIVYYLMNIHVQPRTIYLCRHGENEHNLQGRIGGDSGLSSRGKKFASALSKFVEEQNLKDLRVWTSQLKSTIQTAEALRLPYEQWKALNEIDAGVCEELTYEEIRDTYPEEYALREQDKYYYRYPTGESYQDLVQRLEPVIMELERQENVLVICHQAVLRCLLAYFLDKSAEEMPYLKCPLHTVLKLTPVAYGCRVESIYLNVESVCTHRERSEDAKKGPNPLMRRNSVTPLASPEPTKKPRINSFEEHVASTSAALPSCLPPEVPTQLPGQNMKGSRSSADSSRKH

| Structure (SMILES) | IC50 (U937) [µM] | solubility at 24 h [1] [µg/mL] | IC50 (NCI-H1437) [µM] | Mean metabolized (%) [2] [%] | IC50 (Jurkat) [µM] | IC50 (Calu-6) [µM] | IC50 (NCI-H82) [µM] | inhibition at 0.5 µM (Jurkat cells) [%] | further results |
| --- | --- | --- | --- | --- | --- | --- | --- | --- | --- |
| O=C(/C=C/c1ccc2cccc(O)c2n1)c1ccncc1 [ACT-PFK-070, 3-(8-Hydroxy-quinolin-2-yl)-1-pyridin-4-yl-propenone] | 3.6 | 100 (≈ 362 µM) | 29.3 | 0 | 1.3 | 7.4 | 4 | 45 | IC50 (BX-PC-3): 1.18 µM; IC50 (MiaPaca): 0.275 µM; IC50 (SK-N-SH): 1.46 µM; IC50 (CT26): 2.06 µM; IC50 (SK-BR-3): 1.6 µM; IC50 (A549): 2.69 µM; IC50 (LnCap): 1.28 µM; IC50 (U87MG): 1.68 µM; IC50 (BT474): 0.952 µM; IC50 (H22): 3.95 µM |
| O=C(/C=C/c1ccc2ccccc2n1)c1ccccc1 [ACT-PFK-076, 1-Phenyl-3-quinolin-2-yl-propenone] | 2.5 | – | – | – | 6.4 | 3.3 | 4 | 27 | – |
| O=C(/C=C/c1ccc2ccccc2n1)c1ccccn1 [ACT-PFK-085, 1-Pyridin-2-yl-3-quinolin-2-yl-propenone] | 2.9 | – | – | – | 4.9 | 6.9 | 2.7 | 31 | – |
| NC(=O)c1ccc(C(=O)/C=C/c2ccc3ccccc3n2)cc1 [ACT-PFK-091, 4-(3-Quinolin-2-yl-acryloyl)-benzamide] | 0.4 | 200 (≈ 662 µM) | 4.2 | 0 | 0.6 | 0.2 | 0.7 | 11 | – |
| O=C(/C=C/c1ccc(Cl)cc1)c1cccnc1 [Compound 2, 3-(4-chlorophenyl)-1-(3-pyridinyl)-2-propen-1-one] | – | – | – | – | – | – | – | – | cellular toxicity (HL-60 leukemia cells): dose-dependent cellular toxicity; kinetic rate of PFKFB3 reduced compared to vehicle (EtOH) (PFKFB3): 39.8%; kinetic rate of recombinant PFKFB3 as % of that with vehicle (EtOH) (PFKFB3): 39.8%; cellular toxicity (K562 leukemia cells): dose-dependent cellular toxicity |
| O=CC[C@@H](O)[C@H](O)[C@H](O)CO [Compound 2-DG, 2-deoxyglucose] | – | – | – | – | – | – | – | – | effective concentration of other inhibitors of glycolysis (glycolysis): low mM |
